According to US9314485B2, “Use of PI3K M-TOR and AKT inhibitors to induce FOXP3 expression and generate regulatory T cells” (Medical Research Council, priority 2006, dated 2016):

What was measured:
PI5P4KIIβ = molecular target: T1, PI5P4KIIβ (Homo sapiens, UniProt P78356); conditions: unit inferred; read-out: Specificity for PI5P4KIIβ (IC50 determined in vitro); cited from earlier work
T1 sequence (P78356 1-416): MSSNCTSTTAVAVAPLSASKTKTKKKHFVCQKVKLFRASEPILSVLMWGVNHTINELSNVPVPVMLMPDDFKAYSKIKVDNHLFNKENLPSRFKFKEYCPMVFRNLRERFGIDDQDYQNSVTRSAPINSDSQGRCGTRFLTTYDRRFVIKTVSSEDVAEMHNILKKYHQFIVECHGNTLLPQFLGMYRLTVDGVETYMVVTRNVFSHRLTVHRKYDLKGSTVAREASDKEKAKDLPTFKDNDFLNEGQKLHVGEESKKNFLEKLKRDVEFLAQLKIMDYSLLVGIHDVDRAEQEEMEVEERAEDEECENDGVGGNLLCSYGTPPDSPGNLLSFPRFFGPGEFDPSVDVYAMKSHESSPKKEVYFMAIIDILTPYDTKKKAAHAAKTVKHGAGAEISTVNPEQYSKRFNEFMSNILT

mTORC1 = mTORC1 (Homo sapiens, UniProt P42345); conditions: unit inferred; read-out: Specificity for mTORC1 (IC50 determined in vitro); cited from earlier work
hsVPS34 = hsVPS34 (Homo sapiens, UniProt Q8NEB9); conditions: unit inferred; read-out: Specificity for hsVPS34 (IC50 determined in vitro); cited from earlier work
PI4KIIIα = PI4KIIIα (Homo sapiens, UniProt P42356); conditions: unit inferred; read-out: Specificity for PI4KIIIα (IC50 determined in vitro); cited from earlier work
Sequence of PI4KIIIα (P42356 whole entry): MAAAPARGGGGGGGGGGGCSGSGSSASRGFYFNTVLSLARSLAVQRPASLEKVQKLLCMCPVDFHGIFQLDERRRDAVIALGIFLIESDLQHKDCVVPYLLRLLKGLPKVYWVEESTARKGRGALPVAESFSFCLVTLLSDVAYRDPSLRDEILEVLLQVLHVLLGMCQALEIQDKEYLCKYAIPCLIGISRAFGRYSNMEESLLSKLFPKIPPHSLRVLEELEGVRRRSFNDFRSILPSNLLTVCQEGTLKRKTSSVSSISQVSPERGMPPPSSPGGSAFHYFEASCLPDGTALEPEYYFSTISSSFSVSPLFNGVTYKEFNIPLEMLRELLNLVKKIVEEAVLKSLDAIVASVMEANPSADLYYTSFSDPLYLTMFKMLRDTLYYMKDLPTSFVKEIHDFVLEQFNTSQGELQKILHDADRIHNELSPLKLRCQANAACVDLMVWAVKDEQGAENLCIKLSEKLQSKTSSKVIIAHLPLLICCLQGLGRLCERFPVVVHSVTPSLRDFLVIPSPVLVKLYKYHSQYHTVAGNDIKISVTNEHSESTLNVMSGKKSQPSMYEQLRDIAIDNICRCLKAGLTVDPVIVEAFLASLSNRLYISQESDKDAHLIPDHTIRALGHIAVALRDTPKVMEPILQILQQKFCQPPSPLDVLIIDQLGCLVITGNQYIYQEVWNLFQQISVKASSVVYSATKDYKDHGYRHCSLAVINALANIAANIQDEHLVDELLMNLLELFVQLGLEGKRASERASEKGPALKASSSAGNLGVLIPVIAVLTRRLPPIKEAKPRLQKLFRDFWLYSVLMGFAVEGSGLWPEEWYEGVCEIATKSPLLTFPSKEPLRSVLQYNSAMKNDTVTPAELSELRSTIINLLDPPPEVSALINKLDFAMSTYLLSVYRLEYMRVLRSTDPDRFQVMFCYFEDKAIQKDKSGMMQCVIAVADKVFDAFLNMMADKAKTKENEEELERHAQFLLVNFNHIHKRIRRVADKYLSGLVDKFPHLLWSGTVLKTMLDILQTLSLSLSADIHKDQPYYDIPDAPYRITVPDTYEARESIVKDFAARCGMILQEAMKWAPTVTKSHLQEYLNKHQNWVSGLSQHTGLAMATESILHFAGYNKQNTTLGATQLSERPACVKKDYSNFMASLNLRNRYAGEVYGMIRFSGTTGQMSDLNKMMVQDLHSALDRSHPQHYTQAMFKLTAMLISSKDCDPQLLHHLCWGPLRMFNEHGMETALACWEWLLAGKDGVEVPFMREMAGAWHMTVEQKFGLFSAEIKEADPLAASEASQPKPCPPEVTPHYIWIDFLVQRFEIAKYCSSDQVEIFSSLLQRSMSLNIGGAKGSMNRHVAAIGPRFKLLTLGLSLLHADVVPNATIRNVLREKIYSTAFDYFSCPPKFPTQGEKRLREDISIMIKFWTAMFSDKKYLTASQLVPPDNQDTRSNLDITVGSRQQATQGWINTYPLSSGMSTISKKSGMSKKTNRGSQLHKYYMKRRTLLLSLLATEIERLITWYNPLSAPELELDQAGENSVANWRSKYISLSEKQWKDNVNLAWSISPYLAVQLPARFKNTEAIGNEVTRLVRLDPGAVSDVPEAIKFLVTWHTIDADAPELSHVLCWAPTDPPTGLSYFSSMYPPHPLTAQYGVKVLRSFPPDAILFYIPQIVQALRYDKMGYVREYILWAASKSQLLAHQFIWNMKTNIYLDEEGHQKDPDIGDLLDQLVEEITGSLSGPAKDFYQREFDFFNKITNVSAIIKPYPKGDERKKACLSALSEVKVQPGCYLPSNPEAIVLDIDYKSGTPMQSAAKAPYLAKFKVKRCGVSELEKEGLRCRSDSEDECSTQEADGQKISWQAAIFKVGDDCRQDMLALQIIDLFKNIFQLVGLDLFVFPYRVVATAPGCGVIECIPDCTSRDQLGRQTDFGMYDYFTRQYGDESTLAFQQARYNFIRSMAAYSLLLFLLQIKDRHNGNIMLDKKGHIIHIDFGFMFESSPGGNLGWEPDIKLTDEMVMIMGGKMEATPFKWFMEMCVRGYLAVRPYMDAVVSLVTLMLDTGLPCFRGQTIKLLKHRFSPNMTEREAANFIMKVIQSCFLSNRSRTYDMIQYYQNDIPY

[1] = tested on: naive CD62LhiCD4+CD25− LN T cells; assay: Foxp3 induction in newly activated naive CD4 T cells (intracellular staining); assay type: cell-based, mouse; conditions: for number of cell divisions (CFSE): 24-48 hours after addition at 18 hours; for % Foxp3+ cells, activation with anti-TCR only: no costimulation; for % Foxp3+ cells, activation with anti-TCR only / % Foxp3+ cells, activation with anti-TCR + anti-CD28: average of two experiments; for % Foxp3+ cells, activation with anti-TCR + anti-CD28: with costimulation
Procedure: Mouse strains, cell sorting and culture Animal work was carried out according the Animals (Scientific Procedures) Act, UK. Lymph node (LN) cells were stained, analysed and sorted by flow cytometry as described (Cobb et al 2005 J. Exp. Med. 201: 1367-1373). Intracellular staining for Foxp3 protein was done as advised by the manufacturers (eBiosciences.com). The phosphorylation syatus of S6 ribosomal protein was determined using anti pS6 Ser235/236 (Cellsignaling cat.no. 2211, http://www.cellsignal.com) using the eBioscience Foxp3 staining kit and anti rabbit IgG-FITC or IgG-Cy5 (Jackson Immunoresearch). For induction of Foxp3 expression, sorted LN CD4+ CD25− CD62Lhi T cells were cultured at 1-3×10^6/ml with plate bound anti-TCRβ. […] After 18 hours the cells were either left in place for continued TCR stimulation or moved to uncoated wells with the indicated additives. To assess regulatory function, CD4 T cells cultured as indicated were titrated into round bottom wells containing either 1×10^5 CFSE labeled total LN cells or 5×10^4 CFSE labeled CD4^+ CD25^− T cells and 1×10^5 mitomycin-C treated (25 μg/ml, 20 min, 37° C.) T cell depleted splenocytes with the indicated concentrations of anti CD3 (2C11, Pharmingen). CD4 T cell CFSE profiles were recorded between 48 and 72 hours later.
Mice, Cell Sorting and Culture. Animal work was carried out according to the Animals (Scientific Procedures) Act, UK. Lymph node (LN) cells or thymocytes from wild type were stained, analysed and sorted by flow cytometry as described (Thompson et al., 2007 Immunity VoI 26 pp 335-344) from wild type (C57BL/6, BALB/c or C57BL/6×129) mice or from Rag1 deficient H2^b AND TCR transgenic mice. Antigen presenting cells were derived from bone marrow in the presence of GM-CSF and incubated with antigenic peptide. Intracellular staining for Foxp3 protein was done as advised by the manufacturers (eBiosciences.com). The phosphorylation status of S6 ribosomal protein was determined using anti pS6 Ser235/236 (Cell Signaling cat.no. 2211, http://www.cellsignal.com) using the eBioscience Foxp3 staining kit and anti rabbit IgG-FITC or IgG-Cy5 (Jackson ImmunoResearch). […] After 18 hours the cells were either left in place for continued TCR stimulation or moved to uncoated wells with the indicated additives. To assess regulatory function, CD4 T cells cultured as indicated were titrated into round bottom wells containing either 1×10^5 CFSE labeled total LN cells or 5×10^4 CFSE labeled CD4^+CD25^− T cells and 1×10^5 mitomycin-C treated (25 μg/ml, 20 min, 37° C.) T cell depleted splenocytes with the indicated concentrations of anti CD3 (2C11, Pharmingen). CD4 T cell CFSE profiles were recorded between 48 and 72 hours later.

PI4KIIIβ = PI4KIIIβ (Homo sapiens, UniProt Q9UBF8); conditions: unit inferred; read-out: Specificity for PI4KIIIβ (IC50 determined in vitro); cited from earlier work
PI3KC2β = PI3KC2β (Homo sapiens, UniProt O00750); conditions: unit inferred; read-out: Specificity for PI3KC2β (IC50 determined in vitro); cited from earlier work
Sequence of PI3KC2β (O00750 whole entry, species assumed): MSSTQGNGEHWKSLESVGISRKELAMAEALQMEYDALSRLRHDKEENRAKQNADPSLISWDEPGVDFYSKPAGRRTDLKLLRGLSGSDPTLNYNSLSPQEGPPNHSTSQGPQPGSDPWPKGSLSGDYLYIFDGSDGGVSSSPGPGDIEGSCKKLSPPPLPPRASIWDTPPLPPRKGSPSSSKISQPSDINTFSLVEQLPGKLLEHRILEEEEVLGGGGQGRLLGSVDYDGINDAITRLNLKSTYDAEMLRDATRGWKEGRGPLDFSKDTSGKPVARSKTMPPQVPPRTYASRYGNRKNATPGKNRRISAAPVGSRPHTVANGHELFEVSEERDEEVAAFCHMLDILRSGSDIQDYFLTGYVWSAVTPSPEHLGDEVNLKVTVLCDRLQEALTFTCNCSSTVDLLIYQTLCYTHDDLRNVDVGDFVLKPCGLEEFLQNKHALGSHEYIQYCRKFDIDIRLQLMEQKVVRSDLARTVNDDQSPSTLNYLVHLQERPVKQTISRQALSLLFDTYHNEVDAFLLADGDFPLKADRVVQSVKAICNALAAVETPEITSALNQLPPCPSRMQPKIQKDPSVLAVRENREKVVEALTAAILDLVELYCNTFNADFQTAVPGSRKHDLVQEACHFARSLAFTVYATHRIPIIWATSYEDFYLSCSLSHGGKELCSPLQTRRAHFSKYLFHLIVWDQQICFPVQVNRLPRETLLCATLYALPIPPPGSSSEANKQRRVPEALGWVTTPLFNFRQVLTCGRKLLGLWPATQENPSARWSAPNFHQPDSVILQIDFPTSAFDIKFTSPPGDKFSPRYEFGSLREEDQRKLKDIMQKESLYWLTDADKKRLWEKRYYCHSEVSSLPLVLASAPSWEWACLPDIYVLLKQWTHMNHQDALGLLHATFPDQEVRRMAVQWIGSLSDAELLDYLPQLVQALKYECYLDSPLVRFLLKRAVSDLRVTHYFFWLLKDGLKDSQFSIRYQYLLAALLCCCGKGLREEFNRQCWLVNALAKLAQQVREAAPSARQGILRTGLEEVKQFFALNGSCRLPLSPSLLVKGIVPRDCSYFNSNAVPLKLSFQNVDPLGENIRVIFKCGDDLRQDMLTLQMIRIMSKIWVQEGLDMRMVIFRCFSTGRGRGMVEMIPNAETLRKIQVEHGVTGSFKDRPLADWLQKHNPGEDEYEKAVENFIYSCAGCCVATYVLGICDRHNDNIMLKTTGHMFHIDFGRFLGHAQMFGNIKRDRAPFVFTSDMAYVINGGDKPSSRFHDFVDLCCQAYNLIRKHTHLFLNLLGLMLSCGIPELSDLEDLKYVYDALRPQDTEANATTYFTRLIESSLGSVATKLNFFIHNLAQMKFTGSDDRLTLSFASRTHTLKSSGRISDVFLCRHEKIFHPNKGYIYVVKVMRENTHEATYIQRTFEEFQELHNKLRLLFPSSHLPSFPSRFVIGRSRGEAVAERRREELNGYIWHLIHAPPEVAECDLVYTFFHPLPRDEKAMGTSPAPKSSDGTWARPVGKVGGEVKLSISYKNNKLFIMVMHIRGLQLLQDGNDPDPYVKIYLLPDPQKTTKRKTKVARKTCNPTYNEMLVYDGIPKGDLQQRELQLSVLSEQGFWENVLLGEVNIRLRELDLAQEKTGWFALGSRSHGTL

PI4KIIα = PI4KIIα (Homo sapiens, UniProt Q9BTU6); conditions: unit inferred; read-out: Specificity for PI4KIIα (IC50 determined in vitro); cited from earlier work
Sequence of PI4KIIα (Q9BTU6 whole entry): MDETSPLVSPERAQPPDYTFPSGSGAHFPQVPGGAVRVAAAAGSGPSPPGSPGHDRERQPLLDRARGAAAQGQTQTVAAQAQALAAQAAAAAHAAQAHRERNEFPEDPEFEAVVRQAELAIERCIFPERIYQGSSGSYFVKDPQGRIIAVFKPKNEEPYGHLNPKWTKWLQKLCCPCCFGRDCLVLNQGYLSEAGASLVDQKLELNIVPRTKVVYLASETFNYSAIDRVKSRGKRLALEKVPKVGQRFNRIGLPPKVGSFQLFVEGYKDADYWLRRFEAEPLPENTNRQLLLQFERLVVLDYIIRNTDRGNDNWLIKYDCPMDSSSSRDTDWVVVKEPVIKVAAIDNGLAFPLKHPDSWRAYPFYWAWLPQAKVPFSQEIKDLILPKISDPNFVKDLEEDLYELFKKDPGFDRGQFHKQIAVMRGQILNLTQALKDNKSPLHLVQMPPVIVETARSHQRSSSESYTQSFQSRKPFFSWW

PI4P5KIα [2] = conditions: second PI4P5KIα line; unit inferred; read-out: Specificity for PI4P5KIα (IC50 determined in vitro); cited from earlier work
ATR = ATR (Homo sapiens, UniProt Q13535); conditions: unit inferred; read-out: Specificity for ATR (IC50 determined in vitro); cited from earlier work
PI4P5KIα [3] = molecular target: PI4P5KIα (Homo sapiens, UniProt Q99755); conditions: first PI4P5KIα line; unit inferred; read-out: Specificity for PI4P5KIα (IC50 determined in vitro); cited from earlier work
Sequence of PI4P5KIα (Homo sapiens, UniProt Q99755) (Q99755 whole entry): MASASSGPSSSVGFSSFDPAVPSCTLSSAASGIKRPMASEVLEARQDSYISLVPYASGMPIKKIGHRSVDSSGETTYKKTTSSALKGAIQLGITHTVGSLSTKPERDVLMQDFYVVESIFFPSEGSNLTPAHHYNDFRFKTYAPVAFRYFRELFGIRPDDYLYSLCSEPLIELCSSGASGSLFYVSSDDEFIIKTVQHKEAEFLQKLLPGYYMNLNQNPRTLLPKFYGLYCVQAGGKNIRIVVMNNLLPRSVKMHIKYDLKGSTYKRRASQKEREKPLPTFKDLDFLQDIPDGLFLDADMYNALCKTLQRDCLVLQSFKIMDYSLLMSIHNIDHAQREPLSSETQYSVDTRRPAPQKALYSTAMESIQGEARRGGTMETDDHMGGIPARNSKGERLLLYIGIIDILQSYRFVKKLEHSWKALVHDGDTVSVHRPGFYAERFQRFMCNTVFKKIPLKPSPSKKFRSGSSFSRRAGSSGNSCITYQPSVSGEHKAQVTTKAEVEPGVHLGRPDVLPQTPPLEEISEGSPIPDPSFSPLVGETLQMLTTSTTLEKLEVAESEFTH

PI3KC2α = PI3KC2α (Homo sapiens, UniProt O00443); conditions: unit inferred; read-out: Specificity for PI3KC2α (IC50 determined in vitro); cited from earlier work
DNA-PK = DNA-PK (Homo sapiens, UniProt P78527); conditions: unit inferred; read-out: Specificity for DNA-PK (IC50 determined in vitro); cited from earlier work
ATM = ATM (Homo sapiens, UniProt Q13315); conditions: unit inferred; read-out: Specificity for ATM (IC50 determined in vitro); cited from earlier work
mTORC2 = mTORC2 (Homo sapiens, UniProt P42345); conditions: unit inferred; read-out: Specificity for mTORC2 (IC50 determined in vitro); cited from earlier work
PI3KC2γ = PI3KC2γ (Homo sapiens, UniProt O75747); conditions: unit inferred; read-out: Specificity for PI3KC2γ (IC50 determined in vitro); cited from earlier work
S6 ribosomal protein = S6 ribosomal protein phosphorylation (pS6) by intracellular staining/immunoblot; assay type: cell-based, mouse; conditions: 18 h activated cells; rapamycin 25 nM, Ly294002 10 g/ml as printed; within one hour
Procedure: Mouse strains, cell sorting and culture Animal work was carried out according the Animals (Scientific Procedures) Act, UK. Lymph node (LN) cells were stained, analysed and sorted by flow cytometry as described (Cobb et al 2005 J. Exp. Med. 201: 1367-1373). Intracellular staining for Foxp3 protein was done as advised by the manufacturers (eBiosciences.com). The phosphorylation syatus of S6 ribosomal protein was determined using anti pS6 Ser235/236 (Cellsignaling cat.no. 2211, http://www.cellsignal.com) using the eBioscience Foxp3 staining kit and anti rabbit IgG-FITC or IgG-Cy5 (Jackson Immunoresearch). […] CD4 T cell CFSE profiles were recorded between 48 and 72 hours later.
To monitor the activity of the PI3K/mTOR axis in response to TCR signaling, TCR signal withdrawal and treatment with rapamycin and Ly294002, we analysed the level of phosphorylated S6 ribosomal protein (pS6), the target of p70 S6 kinase, which is directly regulated by mTOR. […]
Mice, Cell Sorting and Culture. […] Lymph node (LN) cells or thymocytes from wild type were stained, analysed and sorted by flow cytometry as described (Thompson et al., 2007 Immunity VoI 26 pp 335-344) from wild type (C57BL/6, BALB/c or C57BL/6×129) mice or from Rag1 deficient H2^b AND TCR transgenic mice. […] CD4 T cell CFSE profiles were recorded between 48 and 72 hours later.

Cc1ccccc1-n1c(Cn2cnc3c(N)ncnc32)nc2cccc(C)c2c1=O [IC87114]
IC50 (PI5P4KIIβ): > 100 µM | IC50 (mTORC1): > 100 µM | IC50 (hsVPS34): > 100 µM | IC50 (PI4KIIIα): > 100 µM | Foxp3 induction at 1 μM ([1]; 1 μM): 15% | increase in Foxp3 expressing cells over and above TCR deprivation alone ([1]; IC-87114 down to 0.01 μM): 10-15% | IC50 (PI4KIIIβ): > 100 µM | IC50 (PI3KC2β): > 100 µM | IC50 (PI4KIIα): > 100 µM | IC50 (PI4P5KIα [2]): > 100 µM | IC50 (ATR): > 100 µM | IC50 (PI4P5KIα [3]): > 100 µM | IC50 (PI3KC2α): > 100 µM | IC50 (DNA-PK): > 100 µM | IC50 (ATM): > 100 µM | IC50 (mTORC2): > 100 µM | IC50 (PI3KC2γ): > 100 µM

O=c1cc(N2CCOCC2)oc2c(-c3ccccc3)cccc12 [Ly294002, 2-(4-Morpholinyl)-8-phenyl-4H-1-benzopyran-4-one]
number of cell divisions (CFSE) [1]: slight reduction | number of cell divisions (CFSE) ([1]; listed as LY294002): slightly reduced | percentage of cells expressing Foxp3 ([1]; added 18 hours after activation with TCR signal deprivation, read within 24-48 hours): 26.9±11.4% | % Foxp3+ cells, activation with anti-TCR only [1]: 4% | % Foxp3+ cells, activation with anti-TCR only ([1]; listed as LY294002): 4% Foxp3^+ | Foxp3 expression in control cultures, TCR signal deprived cultures subtracted ([1]; serum free AIM-V medium, without anti TGFβ and SB431542, 24-48 hours / 2 days): 21.5±4.0% | % Foxp3+ cells, activation with anti-TCR + anti-CD28 [1]: 44% | % Foxp3+ cells, activation with anti-TCR + anti-CD28 ([1]; listed as LY294002): 44% Foxp3^+ | S6 phosphorylation (pS6) (S6 ribosomal protein): completely removed
